Experimental data as given in PMC12153776, “Synthesis and Preliminary Cytotoxicity Evaluation of 3-Lup-20(29)-Ene-3β,28-Diol Glycoconjugates Containing a Succinic Linker and a 1,2,3-Triazole Ring” (Cancers, 2025).

Key:
[1] = system: MCF-7 (human breast adenocarcinoma cell line); assay: MTT cytotoxicity assay, MCF-7 cells; format: cell-based; conditions: for IC50: Homo sapiens, MCF7, 72 h, MTT, incubation 72 h
Experimental: (§1) For biological studies three different cell lines were used: the NHDF-Neo cell line (Lonza, Poland), the HCT-116 cell line (American Type Culture Collection, ATCC, Manassas, VA, USA), and the MCF-7 cell line (purchased by the Maria Sklodowska-Curie Memorial Cancer Center and Institute of Oncology, Gliwice, Poland and gifted for our research). Cells were cultured in 96-well plates (Sarstedt, Nümbrecht, Germany) using RPMI 1640 or DMEM/F12 media (100 µL per well) supplemented with fetal bovine serum (FBS, EURx, Gdańsk, Poland), and with Antibiotic–Antimycotic Solution (Avantor, Gliwice, Poland). Cells were seeded and incubated for 24 h prior to treatment: […] Stock solutions of the tested compounds were prepared in DMSO and stored under appropriate conditions. Immediately prior to the experiment, these solutions were diluted to the desired concentrations using a growth medium. In no dilution was the DMSO content higher than 1% v/v. The resulting solutions were then used to treat cells (100 µL per well). […] In parallel, the influence of copper ions on cellular proliferation was investigated. In this case, the procedure was analogous to the previously described one, with the difference that glycoconjugates were added in the culture medium with the addition of CuCl2. […] ACROS Organics) was applied following the manufacturer’s protocol. Absorbance of the formazan, formed during the test and dissolved in 100 µL of DMSO, was measured spectrophotometrically at 570 nm using a plate reader (Epoch, Bio-Tek, Winooski, VT, USA). The measured absorbance was analyzed to assess proliferation, where tested samples were compared with the untreated controls (100%). The results from MTT were presented as the mean of three experiments (biological replicates). For each experimental condition within a replicate, four technical repetitions were performed. Technical repetitions were averaged to obtain a single value per replicate. Statistical analyses were conducted using means of the biological replicates. The percentage of viable cells and the standard deviation (SD) were calculated in Excel (Microsoft Office 365, A3 for faculty), using the STDEV.S formula, which determines the standard deviation for a sample set. […] The results are expressed as the average value ± standard deviation (SD). To evaluate statistical significance, two-way analysis of variance (ANOVA) with replication was performed to assess the effects of compound type and concentration on cell proliferation. When significant main effects were observed (p < 0.05), pairwise comparisons between betulin (BN) and each analogue at corresponding concentrations were conducted using two-tailed unpaired t-tests. […] All statistical tests were performed in Excel. […] Two cancer cell lines were chosen for the study: HCT 116 (colorectal carcinoma cell line) and MCF-7 (human breast adenocarcinoma cell line). This selection was not random, as in both types of cancer cell lines overexpression of glucose and galactose transporters is observed. To determine if glycoconjugation enhanced the selectivity of the betulin derivatives, cytotoxicity tests on Normal Human Dermal Fibroblast-Neonatal cells (NHDF-Neo) were also conducted. The selection of this healthy cell line, so atypical in relation to the cancer cells tested, was based on the desire to compare the selectivity index determined for the currently obtained glycoconjugates with the results obtained for the betulin derivatives we described earlier and draw preliminary conclusions on structure-selectivity relationships. […] The incubation time for individual cell lines varied from 24 to 72 h, due to differences in the doubling time of these cell lines.

[2] = system: HCT 116 (colorectal carcinoma cell line); assay: cells; format: cell-based, human; conditions: for IC50: Homo sapiens, MTT
Experimental: as §1, with “Poland).” for “Poland). Cells were seeded and incubated for 24 h prior to treatment:”, “proliferation.” for “proliferation. When significant main effects were observed (p < 0.05), pairwise comparisons between betulin (BN) and each analogue at corresponding concentrations were conducted using two-tailed unpaired t-tests.”, “conducted.” for “conducted. The selection of this healthy cell line, so atypical in relation to the cancer cells tested, was based on the desire to compare the selectivity index determined for the currently obtained glycoconjugates with the results obtained for the betulin derivatives we described earlier and draw preliminary conclusions on structure-selectivity relationships.”

[3] = system: Normal Human Dermal Fibroblast-Neonatal cells (NHDF-Neo); assay: MTT cytotoxicity assay, healthy NHDF-Neo cells; format: cell-based; conditions: 24 h, incubation 24 h
Experimental: as §1, with “Poland).” for “Poland). Cells were seeded and incubated for 24 h prior to treatment:”, “proliferation.” for “proliferation. When significant main effects were observed (p < 0.05), pairwise comparisons between betulin (BN) and each analogue at corresponding concentrations were conducted using two-tailed unpaired t-tests.”, “conducted.” for “conducted. The selection of this healthy cell line, so atypical in relation to the cancer cells tested, was based on the desire to compare the selectivity index determined for the currently obtained glycoconjugates with the results obtained for the betulin derivatives we described earlier and draw preliminary conclusions on structure-selectivity relationships.”

[4] = system: healthy cells; set-up: method as in PMID 33353244; conditions: previous study; cited from earlier work
[5] = system: MCF-7 cell line; set-up: method as in PMID 33353244; conditions: previous study; cited from earlier work
[6] = HCT-116, 24 h, incubation 24 h, no copper added
[7] = HCT-116, 48 h, incubation 48 h, addition of CuCl2 at 20 µM
[8] = HCT-116, 48 h, incubation 48 h, no copper added

In the case of `C=C(C)[C@@H]1CC[C@]2(CO)CC[C@]3(C)[C@H](CC[C@@H]4[C@@]5(C)CC[C@H](O)C(C)(C)[C@@H]5CC[C@]43C)[C@@H]12` [BN, 3-Lup-20(29)-ene-3β,28-diol], the IC50 ([1]; addition of CuCl2 at 20 µM) is reported as 13.9 ± 2.35 µM, the IC50 ([1]; no copper added) is reported as 17.9 ± 1.06 µM and the “SI MCF-7 (ratio of IC50 of NHDF-Neo to IC50 of cancer cells)” value ([1]; addition of CuCl2 at 20 µM) is reported as 2.4. For the same compound, the “SI MCF-7 (ratio of IC50 of NHDF-Neo to IC50 of cancer cells)” value ([1]; no copper added) was 1.9, the IC50 [2, 6] was 34.9 ± 4.26 µM and the IC50 [2, 7] was 20.8 ± 2.71 µM. The IC50 [2, 8] was 26 ± 5.4 µM, the “SI HCT 116 (ratio of IC50 of NHDF-Neo to IC50 of cancer cells)” value ([2]; addition of CuCl2 at 20 µM) was 1.6 and the “SI HCT 116 (ratio of IC50 of NHDF-Neo to IC50 of cancer cells)” value ([2]; no copper added) was 1.3. It also gave an IC50 ([3]; addition of CuCl2 at 20 µM) of 33.3 ± 5.97 µM and an IC50 ([3]; no copper added) of 34.9 ± 8.36 µM.

In the case of `C=C(C)C1CCC2(COC(=O)Cn3cc(CO)nn3)CCC3(C)C(CCC4C5(C)CCC(OC(=O)Cn6cc(CO)nn6)C(C)(C)C5CCC43C)C12` (stereo not drawn) [3,28-O,O’-bis(2-(4-(hydroxymethyl-1H-1,2,3-triazol-1-yl)acetyl)betulin], the “toxicity against healthy cells” value [4] is given as “showed toxicity against healthy cells” and the “in vitro activity against the MCF-7 cell line” value [5] is given as “unexpectedly high in vitro activity”.

For `C=C(C)[C@@H]1CC[C@]2(COC(=O)CCC(=O)OCc3cn([C@@H]4O[C@H](COC(C)=O)[C@@H](OC(C)=O)[C@H](OC(C)=O)[C@H]4OC(C)=O)nn3)CC[C@]3(C)C(CCC4[C@@]5(C)CC[C@H](OC(C)=O)C(C)(C)C5CC[C@]43C)C12` (stereo partly drawn) [5a], the IC50 ([1]; addition of CuCl2 at 20 µM) was 109 ± 5.85 µM, the IC50 ([1]; no copper added) was 163 ± 7.65 µM and the “SI MCF-7 (ratio of IC50 of NHDF-Neo to IC50 of cancer cells)” value ([1]; addition of CuCl2 at 20 µM) was >1.8. The “SI MCF-7 (ratio of IC50 of NHDF-Neo to IC50 of cancer cells)” value ([1]; no copper added) was >1.2, the IC50 [2, 6] was > 200 µM and the IC50 [2, 7] was > 200 µM. For the same compound, the IC50 [2, 8] was > 200 µM, the IC50 ([3]; addition of CuCl2 at 20 µM) was > 200 µM and the IC50 ([3]; no copper added) was > 200 µM.

For `C=C(C)[C@@H]1CC[C@]2(COC(=O)CCC(=O)OCc3cn([C@@H]4O[C@H](COCc5ccccc5)[C@H](OCc5ccccc5)[C@H](OCc5ccccc5)[C@H]4OCc4ccccc4)nn3)CC[C@]3(C)C(CCC4[C@@]5(C)CC[C@H](OC(C)=O)C(C)(C)C5CC[C@]43C)C12` (stereo partly drawn) [6b], the IC50 ([1]; no copper added) was 184 ± 7.59 µM, the “SI MCF-7 (ratio of IC50 of NHDF-Neo to IC50 of cancer cells)” value ([1]; no copper added) was >1.1 and the IC50 [2, 6] was > 200 µM. The IC50 [2, 8] was > 200 µM and the IC50 ([3]; no copper added) was > 200 µM.
